Assay [1] concerns the target Uncharacterized aarF domain-containing protein kinase 5 (Homo sapiens, UniProt Q3MIX3).
The target of another assay is T1, Aurora kinase A (Homo sapiens, UniProt O14965).
T1 sequence (O14965 whole entry): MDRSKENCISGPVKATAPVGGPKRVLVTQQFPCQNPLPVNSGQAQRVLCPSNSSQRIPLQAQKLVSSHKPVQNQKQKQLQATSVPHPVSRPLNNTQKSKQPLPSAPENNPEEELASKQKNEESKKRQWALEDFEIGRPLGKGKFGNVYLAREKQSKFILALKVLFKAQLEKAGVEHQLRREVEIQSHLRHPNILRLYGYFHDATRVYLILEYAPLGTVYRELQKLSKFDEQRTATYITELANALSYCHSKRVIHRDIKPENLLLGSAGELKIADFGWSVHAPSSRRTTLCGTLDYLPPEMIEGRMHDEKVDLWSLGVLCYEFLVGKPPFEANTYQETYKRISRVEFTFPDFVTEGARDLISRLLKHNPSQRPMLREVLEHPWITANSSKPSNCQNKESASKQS

In assay [2] the target is Serine/threonine-protein kinase MRCK gamma (Homo sapiens, UniProt Q6DT37).
In assay [3] the target is Cyclin-dependent kinase 17 (Homo sapiens, UniProt Q00537).
Cyclin-dependent kinase 17, sequence (Q00537 whole entry): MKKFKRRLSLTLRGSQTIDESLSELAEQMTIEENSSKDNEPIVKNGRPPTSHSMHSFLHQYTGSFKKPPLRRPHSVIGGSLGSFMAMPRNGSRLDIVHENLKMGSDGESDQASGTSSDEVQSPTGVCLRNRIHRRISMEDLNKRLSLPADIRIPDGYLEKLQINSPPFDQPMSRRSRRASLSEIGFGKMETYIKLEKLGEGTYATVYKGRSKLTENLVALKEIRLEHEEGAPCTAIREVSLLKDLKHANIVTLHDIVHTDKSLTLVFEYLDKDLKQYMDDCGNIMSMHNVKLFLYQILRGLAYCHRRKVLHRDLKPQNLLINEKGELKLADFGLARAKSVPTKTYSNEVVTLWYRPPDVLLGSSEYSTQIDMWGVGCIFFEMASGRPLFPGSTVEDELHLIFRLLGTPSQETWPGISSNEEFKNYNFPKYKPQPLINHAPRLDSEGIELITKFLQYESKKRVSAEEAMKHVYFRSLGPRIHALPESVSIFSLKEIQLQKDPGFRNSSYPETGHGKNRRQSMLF
Assay [4] addresses T2, Cyclin-dependent kinase-like 5 (Homo sapiens, UniProt O76039).
T2 sequence (O76039 whole entry): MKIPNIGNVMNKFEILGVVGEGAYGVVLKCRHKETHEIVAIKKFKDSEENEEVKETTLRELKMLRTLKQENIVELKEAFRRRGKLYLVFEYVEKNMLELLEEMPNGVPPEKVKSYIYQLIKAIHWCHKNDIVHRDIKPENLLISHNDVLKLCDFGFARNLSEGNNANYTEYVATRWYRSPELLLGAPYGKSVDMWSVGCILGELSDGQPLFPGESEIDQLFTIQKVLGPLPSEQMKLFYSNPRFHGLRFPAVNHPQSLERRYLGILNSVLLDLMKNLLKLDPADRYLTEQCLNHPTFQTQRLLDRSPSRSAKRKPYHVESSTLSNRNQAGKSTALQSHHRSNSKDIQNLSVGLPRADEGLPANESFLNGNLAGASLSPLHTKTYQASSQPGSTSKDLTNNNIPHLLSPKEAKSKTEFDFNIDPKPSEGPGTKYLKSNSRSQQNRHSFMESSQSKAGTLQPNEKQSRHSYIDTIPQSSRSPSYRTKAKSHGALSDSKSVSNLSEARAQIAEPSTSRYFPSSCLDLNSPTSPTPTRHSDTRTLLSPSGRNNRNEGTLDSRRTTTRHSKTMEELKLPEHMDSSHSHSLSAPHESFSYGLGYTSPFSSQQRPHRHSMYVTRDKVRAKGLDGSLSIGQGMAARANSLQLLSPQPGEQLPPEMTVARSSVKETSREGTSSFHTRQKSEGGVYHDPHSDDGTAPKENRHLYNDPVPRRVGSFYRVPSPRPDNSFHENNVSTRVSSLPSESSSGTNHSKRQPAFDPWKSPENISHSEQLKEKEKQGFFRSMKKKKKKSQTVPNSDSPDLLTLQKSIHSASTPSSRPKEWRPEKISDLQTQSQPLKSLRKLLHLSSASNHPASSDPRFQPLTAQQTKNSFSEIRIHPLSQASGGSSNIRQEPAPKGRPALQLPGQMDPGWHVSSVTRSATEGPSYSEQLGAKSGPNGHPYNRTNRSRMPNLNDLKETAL

For assay [5], the target named is Dual specificity protein kinase CLK1 (Homo sapiens, UniProt P49759).
Dual specificity protein kinase CLK1, sequence (P49759 whole entry): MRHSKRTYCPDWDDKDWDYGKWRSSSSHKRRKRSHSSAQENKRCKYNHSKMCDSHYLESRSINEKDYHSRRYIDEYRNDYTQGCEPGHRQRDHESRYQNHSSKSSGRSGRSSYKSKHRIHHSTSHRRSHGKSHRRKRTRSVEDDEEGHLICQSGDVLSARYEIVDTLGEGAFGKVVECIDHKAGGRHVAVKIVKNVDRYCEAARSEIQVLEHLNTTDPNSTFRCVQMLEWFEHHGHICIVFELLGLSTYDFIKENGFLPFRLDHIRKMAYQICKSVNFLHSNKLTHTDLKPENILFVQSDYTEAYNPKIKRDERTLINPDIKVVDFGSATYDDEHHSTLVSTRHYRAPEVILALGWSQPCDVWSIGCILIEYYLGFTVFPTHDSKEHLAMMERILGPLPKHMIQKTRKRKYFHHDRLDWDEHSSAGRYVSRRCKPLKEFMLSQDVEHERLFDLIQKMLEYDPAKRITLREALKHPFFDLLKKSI
Assay [6] addresses Dual specificity protein kinase CLK2 (Homo sapiens, UniProt P49760).
A further assay concerns the target Midasin (Homo sapiens, UniProt Q9NU22).
Assay [7] concerns the target Serine/threonine-protein kinase Nek7 (Homo sapiens, UniProt Q8TDX7).
Assay [8] has as its target Serine/threonine-protein kinase PAK 6 (Homo sapiens, UniProt Q9NQU5).
In assay [9] the target is PAS domain-containing serine/threonine-protein kinase (Homo sapiens, UniProt Q96RG2).
In assay [10] the target is cAMP-dependent protein kinase catalytic subunit beta (Homo sapiens, UniProt P22694).
Assay [11] has as its target T3, Protein kinase C zeta type (Homo sapiens, UniProt Q05513).
T3 sequence (Q05513 whole entry): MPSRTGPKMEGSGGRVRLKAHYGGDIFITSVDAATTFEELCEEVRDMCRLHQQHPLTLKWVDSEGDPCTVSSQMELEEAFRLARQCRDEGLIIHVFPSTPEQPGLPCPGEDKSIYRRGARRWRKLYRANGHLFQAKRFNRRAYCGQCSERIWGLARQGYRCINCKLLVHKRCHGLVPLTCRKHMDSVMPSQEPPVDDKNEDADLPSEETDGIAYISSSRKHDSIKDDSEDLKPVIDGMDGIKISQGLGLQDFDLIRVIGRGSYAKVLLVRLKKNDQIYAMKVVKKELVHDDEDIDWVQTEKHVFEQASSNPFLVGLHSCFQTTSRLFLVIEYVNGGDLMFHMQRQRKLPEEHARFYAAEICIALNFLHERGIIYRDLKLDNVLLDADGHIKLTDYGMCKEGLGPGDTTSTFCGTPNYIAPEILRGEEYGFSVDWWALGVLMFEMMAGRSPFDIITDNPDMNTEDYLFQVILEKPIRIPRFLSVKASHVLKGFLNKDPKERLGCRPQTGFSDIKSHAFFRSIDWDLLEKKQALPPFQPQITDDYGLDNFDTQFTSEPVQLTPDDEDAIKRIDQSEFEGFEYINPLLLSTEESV

Assay [12] has as its target Proto-oncogene tyrosine-protein kinase receptor Ret (Homo sapiens, UniProt P07949).
For assay [13], the target named is Proto-oncogene tyrosine-protein kinase Src (Homo sapiens, UniProt P12931).
Proto-oncogene tyrosine-protein kinase Src, sequence (P12931 2-536 limits assumed): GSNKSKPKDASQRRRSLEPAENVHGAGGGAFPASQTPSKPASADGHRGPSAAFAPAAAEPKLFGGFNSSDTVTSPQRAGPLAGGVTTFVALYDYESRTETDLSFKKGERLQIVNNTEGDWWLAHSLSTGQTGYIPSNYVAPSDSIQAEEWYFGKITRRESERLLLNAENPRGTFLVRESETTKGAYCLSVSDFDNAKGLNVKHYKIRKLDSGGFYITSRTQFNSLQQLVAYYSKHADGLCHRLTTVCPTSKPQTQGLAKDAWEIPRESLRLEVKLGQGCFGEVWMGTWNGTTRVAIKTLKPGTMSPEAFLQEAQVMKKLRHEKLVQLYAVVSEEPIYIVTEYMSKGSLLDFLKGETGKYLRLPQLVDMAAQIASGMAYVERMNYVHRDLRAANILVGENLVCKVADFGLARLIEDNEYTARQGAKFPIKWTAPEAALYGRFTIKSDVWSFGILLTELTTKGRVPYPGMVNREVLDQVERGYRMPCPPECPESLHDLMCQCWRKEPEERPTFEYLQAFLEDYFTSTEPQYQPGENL
Assay [14] has as its target Dual specificity testis-specific protein kinase 2 (Homo sapiens, UniProt Q96S53).
Assay [15] deals with T4, Adenine phosphoribosyltransferase (Homo sapiens, UniProt P07741).
T4 sequence (P07741 whole entry): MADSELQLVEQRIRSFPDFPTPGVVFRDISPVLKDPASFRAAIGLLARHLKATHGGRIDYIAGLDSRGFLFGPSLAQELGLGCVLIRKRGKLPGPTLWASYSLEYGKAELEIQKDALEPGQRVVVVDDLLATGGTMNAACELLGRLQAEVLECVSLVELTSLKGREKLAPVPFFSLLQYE

Structures are written as SMILES. Calls of active or inactive are those of the source.

From ChEMBL document CHEMBL3991601, “The target landscape of clinical kinase drugs” (Science, 2017) come the findings set out here.
Also: in the data inactive means no Kd found up to 30 µM.

Dual specificity testis-specific protein kinase 2, sequence (Q96S53 whole entry): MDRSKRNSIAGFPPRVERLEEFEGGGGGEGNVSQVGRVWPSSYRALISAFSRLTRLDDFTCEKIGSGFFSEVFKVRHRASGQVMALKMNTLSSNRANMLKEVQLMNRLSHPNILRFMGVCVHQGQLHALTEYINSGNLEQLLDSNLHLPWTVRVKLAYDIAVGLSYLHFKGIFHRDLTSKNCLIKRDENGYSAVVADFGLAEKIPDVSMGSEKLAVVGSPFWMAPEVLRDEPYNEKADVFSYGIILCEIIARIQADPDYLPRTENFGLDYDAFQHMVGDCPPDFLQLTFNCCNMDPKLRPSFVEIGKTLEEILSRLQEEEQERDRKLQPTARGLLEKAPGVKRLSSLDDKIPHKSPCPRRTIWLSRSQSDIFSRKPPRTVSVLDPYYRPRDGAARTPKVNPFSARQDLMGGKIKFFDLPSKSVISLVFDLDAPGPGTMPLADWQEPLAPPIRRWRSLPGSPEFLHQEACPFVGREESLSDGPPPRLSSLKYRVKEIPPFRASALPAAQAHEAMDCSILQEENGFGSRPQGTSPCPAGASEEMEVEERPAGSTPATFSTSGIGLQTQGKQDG
Proto-oncogene tyrosine-protein kinase receptor Ret, sequence (P07949 whole entry): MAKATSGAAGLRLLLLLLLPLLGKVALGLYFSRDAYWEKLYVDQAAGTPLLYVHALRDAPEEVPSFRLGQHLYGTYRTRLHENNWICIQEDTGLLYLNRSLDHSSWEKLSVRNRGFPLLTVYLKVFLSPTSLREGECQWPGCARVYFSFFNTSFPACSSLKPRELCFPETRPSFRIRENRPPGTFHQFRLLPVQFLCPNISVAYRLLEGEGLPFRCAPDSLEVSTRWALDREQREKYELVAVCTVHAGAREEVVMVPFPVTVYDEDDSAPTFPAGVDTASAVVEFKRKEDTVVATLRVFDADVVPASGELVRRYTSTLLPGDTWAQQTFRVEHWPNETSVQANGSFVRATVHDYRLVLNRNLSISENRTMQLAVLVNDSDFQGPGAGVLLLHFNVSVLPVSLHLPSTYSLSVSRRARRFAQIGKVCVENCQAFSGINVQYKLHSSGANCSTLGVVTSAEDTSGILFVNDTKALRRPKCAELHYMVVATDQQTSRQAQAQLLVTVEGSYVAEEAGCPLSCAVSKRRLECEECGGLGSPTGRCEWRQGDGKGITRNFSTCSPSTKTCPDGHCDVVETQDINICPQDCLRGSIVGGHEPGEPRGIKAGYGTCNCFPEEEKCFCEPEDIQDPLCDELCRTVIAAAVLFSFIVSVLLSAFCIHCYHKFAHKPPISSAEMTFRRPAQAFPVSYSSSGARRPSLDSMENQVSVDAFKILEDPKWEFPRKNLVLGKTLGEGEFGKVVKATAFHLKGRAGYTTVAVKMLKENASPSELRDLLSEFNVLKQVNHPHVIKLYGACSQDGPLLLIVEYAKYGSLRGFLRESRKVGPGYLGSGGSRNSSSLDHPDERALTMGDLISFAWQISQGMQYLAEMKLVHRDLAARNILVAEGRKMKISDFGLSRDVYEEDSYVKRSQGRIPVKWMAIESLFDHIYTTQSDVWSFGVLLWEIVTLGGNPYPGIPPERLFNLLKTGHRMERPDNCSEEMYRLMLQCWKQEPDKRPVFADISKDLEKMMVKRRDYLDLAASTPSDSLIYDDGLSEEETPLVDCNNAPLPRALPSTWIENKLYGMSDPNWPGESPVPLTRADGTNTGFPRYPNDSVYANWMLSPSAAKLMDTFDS
Serine/threonine-protein kinase Nek7, sequence (Q8TDX7 whole entry): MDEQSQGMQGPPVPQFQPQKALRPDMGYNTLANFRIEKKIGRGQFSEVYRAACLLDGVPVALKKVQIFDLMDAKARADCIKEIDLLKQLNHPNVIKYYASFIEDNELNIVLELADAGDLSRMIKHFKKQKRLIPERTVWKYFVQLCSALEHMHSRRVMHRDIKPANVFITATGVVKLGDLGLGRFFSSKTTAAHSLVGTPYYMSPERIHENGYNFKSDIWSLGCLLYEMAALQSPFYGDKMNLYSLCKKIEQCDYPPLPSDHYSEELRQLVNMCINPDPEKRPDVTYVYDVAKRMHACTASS
Uncharacterized aarF domain-containing protein kinase 5, sequence (Q3MIX3 whole entry, the tested form may be a part): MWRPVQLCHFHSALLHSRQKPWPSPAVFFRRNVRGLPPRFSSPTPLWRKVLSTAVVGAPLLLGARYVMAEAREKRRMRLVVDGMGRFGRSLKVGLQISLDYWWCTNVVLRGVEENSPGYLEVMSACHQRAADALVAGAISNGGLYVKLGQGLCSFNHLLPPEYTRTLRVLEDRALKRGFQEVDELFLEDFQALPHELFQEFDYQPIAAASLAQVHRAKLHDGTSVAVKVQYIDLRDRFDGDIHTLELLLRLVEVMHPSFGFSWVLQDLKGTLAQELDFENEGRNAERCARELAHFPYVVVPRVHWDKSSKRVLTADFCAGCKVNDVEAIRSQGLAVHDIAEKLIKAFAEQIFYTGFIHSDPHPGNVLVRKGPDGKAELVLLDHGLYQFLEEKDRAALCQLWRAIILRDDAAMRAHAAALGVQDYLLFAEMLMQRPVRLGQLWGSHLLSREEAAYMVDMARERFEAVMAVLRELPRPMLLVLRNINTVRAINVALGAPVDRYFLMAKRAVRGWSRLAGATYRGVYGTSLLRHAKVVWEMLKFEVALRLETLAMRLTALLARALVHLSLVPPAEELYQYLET
Dual specificity protein kinase CLK2, sequence (P49760 whole entry): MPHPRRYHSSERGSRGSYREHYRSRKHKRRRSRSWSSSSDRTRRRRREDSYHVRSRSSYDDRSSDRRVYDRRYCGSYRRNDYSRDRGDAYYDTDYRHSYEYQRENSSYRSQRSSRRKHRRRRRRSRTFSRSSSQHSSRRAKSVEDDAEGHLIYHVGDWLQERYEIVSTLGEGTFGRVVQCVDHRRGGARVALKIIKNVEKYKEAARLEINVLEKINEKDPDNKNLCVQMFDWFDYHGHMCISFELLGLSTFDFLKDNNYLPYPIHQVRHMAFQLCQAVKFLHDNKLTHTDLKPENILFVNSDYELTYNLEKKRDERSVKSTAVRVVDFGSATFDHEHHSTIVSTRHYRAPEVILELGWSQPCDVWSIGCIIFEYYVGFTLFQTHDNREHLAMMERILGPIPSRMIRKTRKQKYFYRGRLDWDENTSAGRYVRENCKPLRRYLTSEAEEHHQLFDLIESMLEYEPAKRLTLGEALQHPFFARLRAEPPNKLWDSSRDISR

On to `COc1cc(OC)c(/C=C/S(=O)(=O)Cc2ccc(OC)c(NCC(=O)O)c2)c(OC)c1` [RIGOSERTIB], for which the Kd (in assay [1]; at Aurora kinase A; in [2]; in assay [3]; in [4]; in [5]) was > 30 µM (inactive) each time. Also, the Kd (in assay [6]; on Midasin; in [7]; in assay [8]; in assay [9]; in [10]) was > 30 µM (inactive) throughout. Besides, the Kd in [11], in assay [12], in assay [13] and in assay [14] was > 30 µM (inactive) in each case.
Turning to `OCCn1cc(-c2cnc3nnn(Cc4ccc5ncccc5c4)c3n2)cn1` [PF-04217903], the Kd in [1], in assay [15], in assay [2], in [3], in assay [4] and in assay [5] was > 30 µM (inactive) throughout. In addition, the Kd (at Midasin; in assay [7]; in assay [8]; in assay [9]; in assay [10]; in assay [11]) was > 30 µM (inactive) in each case. In [13], the Kd (commonly a measure of binding affinity in units of concentration) is > 30 µM (inactive).
For `O=C(Nc1ccc(-c2ccnc(Nc3ccc(N4CCOCC4)cc3)n2)cc1)C1CCCN1` (centres undefined) [XL-019], the Kd (in assay [15]; at Aurora kinase A; in assay [2]; in assay [4]; in assay [5]; in assay [6]) was > 30 µM (inactive) each time. Also, the Kd (at Midasin; in assay [7]; in assay [8]; in assay [9]; in [10]; in assay [11]) was > 30 µM (inactive) each time. Further, the values for the Kd in assay [12] and in [13] were 1.33 µM (active) and > 30 µM (inactive), respectively.
Turning to `CNC(=O)c1ccc(-c2cnc3ncc(Cc4ccc5ncccc5c4)n3n2)cc1F` [CAPMATINIB], the Kd in assay [1] is > 30 µM (inactive); in assay [15], > 30 µM (inactive); on Aurora kinase A, > 30 µM (inactive); in assay [2], > 30 µM (inactive); in [3], > 30 µM (inactive); in assay [4] it was 2.04 µM. Moreover, the Kd (in assay [5]; at Midasin; in assay [7]; in [8]; in assay [10]; in assay [11]) was > 30 µM (inactive) each time. Further, the Kd in [12] and in assay [13] was > 30 µM (inactive) throughout.
As to `O=C(O)[C@]1(Cc2cccc(Nc3nccs3)n2)CC[C@@H](Oc2cccc(Cl)c2F)CC1` [MK-5108], the Kd in assay [1], in assay [2], in assay [3], in assay [4], in assay [5] and in [6] was > 30 µM (inactive) each time. In addition, the Kd (on Midasin; in assay [7]; in [8]; in [9]; in assay [10]; in [11]) was > 30 µM (inactive) each time. The Kd is 0.388 µM (active) in assay [12] and > 30 µM (inactive) in [13].
Take `O=C1NC(=O)/C(=C/c2ccc3nccc(-c4ccncc4)c3c2)S1` [GSK-1059615]: the Kd in [1] is > 30 µM (inactive); on Aurora kinase A it was > 30 µM (inactive); in [2], > 30 µM (inactive); in assay [3], > 30 µM (inactive); in [4], > 30 µM (inactive); in assay [5], 0.025 µM (active). In addition, the Kd in assay [6] is 0.0004 µM (active); in assay [7] it was > 30 µM (inactive); in assay [8], > 30 µM (inactive); in [10], > 30 µM (inactive); in assay [11], > 30 µM (inactive); in [12] it was > 30 µM (inactive). Besides, the Kd in [13] and in assay [14] was > 30 µM (inactive) in each case.
As to `CCc1cnn2c(NCc3ccc[n+]([O-])c3)cc(N3CCCC[C@H]3CCO)nc12` [DINACICLIB], the Kd in [1] is > 30 µM (inactive); in [15], > 30 µM (inactive); in [2], > 30 µM (inactive); in assay [4], > 30 µM (inactive); in assay [5] it was 0.714 µM (active); on Midasin, > 30 µM (inactive). Moreover, the Kd in [7], in assay [8], in assay [9], in [10], in assay [11] and in assay [13] was > 30 µM (inactive) each time. Besides, the Kd in assay [14] is > 30 µM (inactive).
`CN1CCC(CNc2ccc3ncc(-c4cccc(OC(F)(F)F)c4)n3n2)CC1` [SGI-1776]: the Kd (in assay [15]; at Aurora kinase A; in [2]; in assay [3]; in assay [4]; in assay [5]) was > 30 µM (inactive) throughout. The Kd (in [6]; at Midasin; in assay [7]; in [8]; in [9]; in [10]) was > 30 µM (inactive) throughout. The Kd in assay [11] is > 30 µM (inactive); in assay [12] it was 3.22 µM (active); in assay [13] it was > 30 µM (inactive); in assay [14], > 30 µM (inactive).
